Test results published in US9730931B2, “Pyrimidine FGFR4 inhibitors” (priority 2013, dated 2017).
Like-named read-outs stand apart in the source and are kept apart here.

Tested on: Hep3B xenograft
Type: in vivo

| Compound | Tolerability (health of animals) (30 mg/kg orally twice daily) | Comparative in vivo efficacy (60 mg/kg orally twice daily) | Tolerability (health of animals) (60 mg/kg orally twice daily) | Comparative in vivo efficacy (25, 37.5 or 50 mg/kg i.p. twice daily) |
| --- | --- | --- | --- | --- |
| CCN1CCN(c2ccc(Nc3cc(N(C)C(=O)Nc4c(Cl)c(OC)cc(OC)c4Cl)ncn3)cc2)CC1 [BGJ398] | did not exhibit poor health | efficacy comparable to compound 108 | terminated on Day 11 due to poor health of animals | – |
| C=CC(=O)Nc1cc(N2CCN(CC)CC2)ccc1Nc1cc(N(C)C(=O)Nc2c(Cl)c(OC)cc(OC)c2Cl)ncn1 [Example 108, N-(2-(6-(3-(2,6-Dichloro-3,5-dimethoxyphenyl)-1-methylureido)-pyrimidin-4-ylamino)-5-(4-ethylpiperazin-1-yl)-phenyl)-acrylamide] | – | – | – | more efficacious than BGJ398 at tolerable dosage levels |
